Holding throughout (test): direct UV assay of deamination
Holding throughout (assay type): biochemical
Holding throughout (settings): 20 mM HEPES pH 7.5, 30 °C

One assay has as its target T1, Tvn0515 (Thermoplasma volcanium, UniProt Q97BE1).
T1 sequence (Q97BE1 1-418): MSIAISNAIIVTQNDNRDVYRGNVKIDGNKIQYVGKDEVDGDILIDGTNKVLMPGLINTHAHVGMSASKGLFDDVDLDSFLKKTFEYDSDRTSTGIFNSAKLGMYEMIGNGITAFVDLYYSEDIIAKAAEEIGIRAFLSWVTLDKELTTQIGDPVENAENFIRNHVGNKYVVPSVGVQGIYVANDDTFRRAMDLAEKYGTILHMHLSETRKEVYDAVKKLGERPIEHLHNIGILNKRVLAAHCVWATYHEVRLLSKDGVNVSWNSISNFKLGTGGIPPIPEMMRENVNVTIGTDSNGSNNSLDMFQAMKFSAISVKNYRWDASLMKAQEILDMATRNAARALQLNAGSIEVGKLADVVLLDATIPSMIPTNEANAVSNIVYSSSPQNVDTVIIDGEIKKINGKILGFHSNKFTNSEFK

The target in assay [1] is T2, Avi5431 (Gillisella ampelina, UniProt B9K107).
T2 sequence (B9K107 1-466): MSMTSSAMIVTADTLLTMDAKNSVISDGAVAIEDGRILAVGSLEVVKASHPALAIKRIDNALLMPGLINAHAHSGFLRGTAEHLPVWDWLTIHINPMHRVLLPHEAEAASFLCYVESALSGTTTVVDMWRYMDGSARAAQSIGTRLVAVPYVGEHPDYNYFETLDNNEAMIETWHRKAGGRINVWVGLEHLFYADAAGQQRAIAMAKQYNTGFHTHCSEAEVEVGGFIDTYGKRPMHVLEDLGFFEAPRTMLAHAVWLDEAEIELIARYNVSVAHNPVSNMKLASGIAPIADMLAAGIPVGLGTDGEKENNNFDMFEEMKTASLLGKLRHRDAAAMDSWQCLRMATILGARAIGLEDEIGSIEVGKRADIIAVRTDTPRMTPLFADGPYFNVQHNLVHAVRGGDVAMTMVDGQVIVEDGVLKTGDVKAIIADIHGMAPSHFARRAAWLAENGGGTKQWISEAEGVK

The target of assay [2] is T2, Avi5431. The source holds these as a separate data set.

The results in this text go back to publication PMC3827683 (Journal of the American Chemical Society, 2013).

Take `Nc1ncnc2c1ncn2[C@@H]1O[C@H](CSCC[C@H](N)C(=O)O)[C@@H](O)[C@H]1O` [SAH]: the Km result on Tvn0515 is listed as “Tvn0515 (sg-11) deaminates only SAH”.
For the compound `Nc1nc(O)nc2[nH]cnc12` [2-oxoadenine], the “direct UV assay of deamination (294 nm)” value on Avi5431 [1] was “Avi5431 deaminated two adenine related compounds, 8-oxoadenine and 2-oxoadenine”.
Regarding `Nc1ncnc2[nH]c(=O)[nH]c12` [8-oxoadenine], at Avi5431 [2], the “direct UV assay of deamination (272 nm)” value was “Avi5431 deaminated two adenine related compounds, 8-oxoadenine and 2-oxoadenine”.
